The source of these data is paper PMC6812009, “Covalent Aurora A regulation by the metabolic integrator coenzyme A” (Redox Biology, 2019).

Holding throughout (assay): Kinase profiling screen (radioactive filter-binding assay)
Common to all, as to type: biochemical

One experiment addresses T1, IKKβ (Homo sapiens, UniProt O14920).
T1 sequence (O14920 1-756): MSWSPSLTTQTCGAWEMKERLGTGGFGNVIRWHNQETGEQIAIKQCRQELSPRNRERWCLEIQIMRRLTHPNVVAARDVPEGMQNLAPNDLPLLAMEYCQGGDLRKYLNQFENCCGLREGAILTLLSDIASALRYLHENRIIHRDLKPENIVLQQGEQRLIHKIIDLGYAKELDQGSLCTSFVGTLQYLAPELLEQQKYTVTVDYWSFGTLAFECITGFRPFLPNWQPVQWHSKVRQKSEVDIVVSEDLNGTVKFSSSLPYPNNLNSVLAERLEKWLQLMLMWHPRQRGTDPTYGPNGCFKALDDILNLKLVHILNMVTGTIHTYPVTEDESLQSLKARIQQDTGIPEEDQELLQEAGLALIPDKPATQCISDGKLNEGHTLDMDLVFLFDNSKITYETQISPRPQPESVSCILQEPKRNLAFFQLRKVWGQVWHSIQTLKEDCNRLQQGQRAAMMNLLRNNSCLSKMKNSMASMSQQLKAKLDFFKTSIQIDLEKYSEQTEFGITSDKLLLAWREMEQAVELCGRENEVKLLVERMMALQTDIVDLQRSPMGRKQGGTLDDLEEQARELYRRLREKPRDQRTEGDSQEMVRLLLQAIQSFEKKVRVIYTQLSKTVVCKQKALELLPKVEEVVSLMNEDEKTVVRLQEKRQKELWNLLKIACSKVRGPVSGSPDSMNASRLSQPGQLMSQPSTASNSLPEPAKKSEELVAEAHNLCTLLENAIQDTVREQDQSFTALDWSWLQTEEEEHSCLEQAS
The settings on record: 100 μM compound, 5 μM ATP; read-out: Kinase activity, % of activity in the absence of inhibitor. Summed up: (§1)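 Residual kinase activity is read in duplicate wells containing 100 μM final test compound (CoA, dpCoA or ADP). Recombinant kinases use model substrates at ATP levels optimal for each enzyme, across a 117-kinase screen.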

Another experiment deals with T2, MST2 (Homo sapiens, UniProt Q13188).
T2 sequence (Q13188 1-491): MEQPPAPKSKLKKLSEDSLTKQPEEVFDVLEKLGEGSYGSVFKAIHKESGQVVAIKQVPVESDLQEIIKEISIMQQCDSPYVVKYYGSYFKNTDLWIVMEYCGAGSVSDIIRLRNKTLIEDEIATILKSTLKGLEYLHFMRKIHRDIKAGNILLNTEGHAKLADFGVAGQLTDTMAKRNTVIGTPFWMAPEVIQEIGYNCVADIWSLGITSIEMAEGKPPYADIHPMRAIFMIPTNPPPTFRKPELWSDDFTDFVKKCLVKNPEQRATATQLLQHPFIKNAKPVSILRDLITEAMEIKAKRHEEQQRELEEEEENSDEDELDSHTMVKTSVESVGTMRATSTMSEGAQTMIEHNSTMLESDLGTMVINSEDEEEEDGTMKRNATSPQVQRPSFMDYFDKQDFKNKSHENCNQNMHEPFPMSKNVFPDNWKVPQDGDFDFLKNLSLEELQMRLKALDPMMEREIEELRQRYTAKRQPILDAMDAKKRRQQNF
The settings on record: 100 μM compound, 20 μM ATP; read-out: Kinase activity, % of activity in the absence of inhibitor. Summed up:
as §1

For the next experiment, the target named is T3, TAO1 (Homo sapiens, UniProt Q7L7X3).
T3 sequence (Q7L7X3 1-1001): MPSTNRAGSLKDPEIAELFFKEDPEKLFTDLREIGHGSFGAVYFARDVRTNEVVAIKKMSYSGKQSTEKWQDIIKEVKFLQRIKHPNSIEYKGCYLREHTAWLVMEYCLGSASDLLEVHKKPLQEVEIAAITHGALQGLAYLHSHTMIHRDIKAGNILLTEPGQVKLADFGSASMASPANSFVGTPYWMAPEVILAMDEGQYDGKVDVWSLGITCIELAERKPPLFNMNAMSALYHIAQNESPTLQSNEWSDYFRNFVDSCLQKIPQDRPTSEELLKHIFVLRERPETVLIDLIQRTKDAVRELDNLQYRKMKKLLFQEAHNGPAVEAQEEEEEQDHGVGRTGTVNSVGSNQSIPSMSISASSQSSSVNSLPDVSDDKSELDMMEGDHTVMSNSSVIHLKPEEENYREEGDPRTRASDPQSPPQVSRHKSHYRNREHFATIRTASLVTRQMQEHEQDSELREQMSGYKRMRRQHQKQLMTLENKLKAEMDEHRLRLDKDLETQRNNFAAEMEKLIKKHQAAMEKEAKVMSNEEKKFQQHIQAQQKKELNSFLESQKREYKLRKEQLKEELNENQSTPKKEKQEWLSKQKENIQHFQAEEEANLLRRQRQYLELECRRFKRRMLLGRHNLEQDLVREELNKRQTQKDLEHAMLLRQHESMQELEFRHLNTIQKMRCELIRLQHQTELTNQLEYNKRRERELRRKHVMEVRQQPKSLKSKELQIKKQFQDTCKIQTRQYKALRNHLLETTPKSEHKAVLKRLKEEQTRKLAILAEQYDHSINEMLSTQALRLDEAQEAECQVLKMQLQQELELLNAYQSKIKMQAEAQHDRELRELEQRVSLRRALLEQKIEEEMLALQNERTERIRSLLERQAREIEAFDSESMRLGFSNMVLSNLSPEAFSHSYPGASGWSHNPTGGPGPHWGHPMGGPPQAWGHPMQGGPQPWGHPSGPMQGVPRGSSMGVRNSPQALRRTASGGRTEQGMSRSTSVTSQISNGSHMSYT
As to conditions: 100 μM compound, 20 μM ATP; read-out: Kinase activity, % of activity in the absence of inhibitor. Summed up: as §1

As to `Nc1ncnc2c1ncn2C1OC(COP(=O)(O)OP(=O)(O)O)C(O)C1O` (stereo not drawn) [ADP], the activity at 100 µM worked out at 26.6% at IKKβ, 40.5% on MST2 and 34% on TAO1.
Consider `CC(C)(COP(=O)(O)OP(=O)(O)OC[C@H]1O[C@@H](n2cnc3c(N)ncnc32)[C@H](O)[C@@H]1OP(=O)(O)O)[C@@H](O)C(=O)NCCC(=O)NCCS` [CoA, Coenzyme A], for which the activity at 100 µM at IKKβ is 90.5%; on MST2, 119%; on TAO1, 113%.
Taken in the same sequence, the figures for `CC(C)(COP(=O)(O)OP(=O)(O)OCC1OC(n2cnc3c(N)ncnc32)C(O)C1O)C(O)C(=O)NCCC(=O)NCCS` (stereo not drawn) [dpCoA, dephospho-CoA] were 48%, 72.5% and 98.3%.
